Test results: patent US7572439B2, “Enzyme disruption of bacterial biofilms” (priority 2002, dated 2009)
Marks after values point to notes of the source that are not given here.

Experiments:
[1] = system: biofilms of S. aureus SA113; assay: Kinetic effect on established biofilms: absorbance at 650 nm and safranin staining; format: cell-based; conditions: for absorbance of biofilms at 650 nM: 6.25 μg/ml in PBS
Protocol: Oxacillin and vancomycin have often been used in antibiotic susceptibility studies of S. aureus biofilms. […] Twenty four-hour biofilms in polystyrene 96-well tissue culture plates were treated with serial dilutions of lysostaphin, oxacillin, and vancomycin (FIG. 7).
In order to examine the kinetic effect of lysostaphin, oxacillin and vancomycin on biofilms, the absorbance of established biofilms in a 96-well tissue culture plate was measured over time (0-3 hrs and 24 hrs). Tissue culture wells containing biofilms of S. aureus SA113 were incubated with serial dilutions of lysostaphin ([…]), oxacillin ([…]), or vancomycin ([…]) for 24 hours, and the absorbance at 650 nm was monitored every 20 minutes for the first 3 hours and then again at 24 hours. The absorbance of the lysostaphin-treated biofilms dropped from approximately 0.35 at time zero to 0.125 after 3 hours of treatment and dropped to near base line (0.04) by 24 hrs when treated with a dose of lysostaphin of 6.25 μg/ml in PBS (FIG. 7). […] Since antimicrobials like oxacillin or vancomycin are effective against actively metabolizing bacteria, a similar experiment was conducted but the biofilms were incubated with the three anti-microbials in bacterial media (TSB). Very similar results were also found when the assay was conducted in TSB rather than PBS.
The capacity of the three agents to disrupt S. aureus biofilms in polystyrene wells can be visualized by comparing the staining intensity of treated wells versus control (buffer-treated) wells.

[2] = system: S. epidermidis; assay: Killing of bacteria in lysostaphin-coated Angiocath catheters; format: cell-based; conditions: for CFU (n = 2): catheter coating 0.1 mg/ml; for log reduction from the control sample: coated catheters
Protocol: Coating of Catheters. The needles from the AngioCath catheters were removed and disposed. Using a 1 ml syringe, the catheters were coated with 200 μl of a 0.1 mg/ml solution of lysostaphin. The catheters were incubated for 1 hour, unless otherwise specified, at room temperature. The catheters were then washed with 50 ml of phosphate buffered saline using a peristaltic pump with a flow rate of 1.5 ml/minute. The catheters were then inoculated with 120 μl of a ˜5×10^4 CFU/ml solution of bacteria (diluted in TSB) and incubated for 2 hours at 37° C. The catheter effluent was then streaked onto a blood agar plate and incubated overnight at 37° C.

[3] = system: S. aureus; assay: Pre-treatment of catheterized mice with lysostaphin before S. aureus challenge; format: in vivo; conditions: for CFUs catheter / CFUs heart / CFUs liver: rinsed; for Animals infected: rinsed after 22 hours, 10^4 S. aureus, 4 days
Protocol: Jugular vein catheterized mice were pretreated with one or two doses of lysostaphin via catheter prior to being challenged with S. aureus as in Example 4. The mice received either one dose of lysostaphin (40 mg/kg) 24 hours pre-challenge or two doses of lysostaphin (40 mg/kg) 24 hours and 2 hours pre-challenge. Lysostaphin solutions were left in the catheters during challenge. Control mice received standard Phosphate Buffered Saline (PBS). The mice were sacrificed four days post-challenge.
In the above example, the lysostaphin solution was left in the catheters at the time of bacterial challenge, so it could be argued that this lysostaphin in solution was protecting the catheters from S. aureus infection. In order to perform a more rigorous experiment, Catheterized mice were instilled with a single dose of 40 mg/kg lysostaphin in 200 ul PBS through the catheter. One group also received a subsequent 50 ul of lock solution containing the same concentration of lysostaphin as the pre-instillation dose. Twenty two hours later, the catheters of all of these mice were rinsed thoroughly with PBS. Two hours post-rinsing, the animals were challenged with 10^4 S. aureus. The animals were sacrificed 4 days post S. aureus challenge and the catheters and organs processed for bacteria.

[4] = system: SA5; assay: Leaching of lysostaphin off coated surfaces; format: cell-based, S. aureus
Protocol: Leaching of Lysostaphin. To test whether lysostaphin was slowly being released from the catheter into the lumen solution, lysostaphin coated catheters were incubated with 100 μl PBS for 2 hours at 37° C. The PBS was then transferred into an Eppendorf tube and 10^5 CFU of SA5 was added to the effluent and incubated for 1 hour at 37° C. 40 μl from the samples were streaked onto blood agar plates and incubated overnight at 37° C. Alternatively, lysostaphin coated catheters were incubated with PBS overnight at 37° C. The following morning the PBS was washed out and the catheters were inoculated with ˜5×10^4 CFU/ml SA5 for 2 hours at 37° C. The effluent was then streaked onto blood agar plates and incubated at 37° C. overnight. To look for leaching off the polystyrene surface, the wells were coated with 10, 1 and 0.1 mg/ml lysostaphin for 60 minutes. The wells were then washed, and 300 μl of PBS was added to the wells for 2 hours and then removed 300 μl of a 5×10^4 CFU/ml solution of SA5 was added to the PBS wash and allowed to incubate for one hour at 37° C. 40 μl was then removed and streaked onto a blood agar plate and incubated overnight at 37° C.

[5] = 40 mg/kg i.c., no lock, results from the one infected animal

Substance: lysostaphin
- absorbance of biofilms at 650 nM ([1]; 24 hrs): ~0.04
- absorbance of biofilms at 650 nM ([1]; after 3 hours): 0.125
- absorbance of biofilms at 650 nM ([1]; time zero): approximately 0.35
- lowest concentration that cleared biofilms (safranin) ([1]; in PBS, 24 hours): 0.8 µg/mL
- effect on absorbance of biofilms ([1]; in TSB, 24 hours (data not shown)): reduced the absorbance of biofilms to near background
- effect on absorbance of S. aureus biofilms over time (FIG. 7 legend) ([1]; lysostaphin 6.25 cg/ml, vancomycin 800 cg/ml, oxacillin 400 cg/ml): immediate and continuous drop in the absorbance
- CFU (n = 2) ([2]; S. epi 380): 4 CFU
- CFU (n = 2) ([2]; S. epi 1175): 68 CFU
- CFU (n = 2) ([2]; S. epi 35984): 16 CFU
- log reduction from the control sample ([2]; S. epidermidis 1175): 1.1 log
- log reduction from the control sample ([2]; S. epidermidis ATCC 35984): 1.8 log
- log reduction from the control sample ([2]; S. epidermidis type 380): 2.2 log
- CFUs catheter ([3]; 40 mg/kg i.c. and lock): 0 CFUs
- CFUs heart ([3]; 40 mg/kg i.c. and lock): 0 CFUs
- CFUs liver ([3]; 40 mg/kg i.c. and lock): 0 CFUs
- Animals infected ([3]; 40 mg/kg i.c. and lock): 0/4
- CFUs catheter ([3]; 40 mg/kg i.c., no lock): 0 CFUs
- Animals infected ([3]; 40 mg/kg i.c., no lock): 1/4
- CFUs heart [3, 5]: (287)^a CFUs
- CFUs liver [3, 5]: (341)^a CFUs
- infection status of pretreated mice ([3]; 40 mg/kg via catheter 24 hours or 24 hours and 2 hours pre-challenge, solution left in catheters, four days post-challenge): All eight treated mice were S. aureus free
- protection of catheters from formation of S. aureus biofilms ([3]; single dose of 40 mg/kg pre-instilled, excess rinsed out): will protect the catheters from formation of S. aureus biofilms
- CFU (n = 3) ([4]; Angiocath, coating 0.1 mg/ml, saline incubation 2 hr, bacteria added to PBS wash): 219 CFU
- CFU (n = 3) ([4]; Angiocath, coating 0.1 mg/ml, saline incubation 24 hr, bacteria added to catheter): 0 CFU
- CFU (n = 3) ([4]; Polystyrene, coating 0.1 mg/m, saline incubation 2 hr, killing in wash): 291 CFU
- CFU (n = 3) ([4]; Polystyrene, coating 1 mg/ml, saline incubation 2 hr, killing in wash): 33 CFU
- CFU (n = 3) ([4]; Polystyrene, coating 10 mg/ml, saline incubation 2 hr, killing in wash): 26 CFU
- reduction in bacterial counts by PBS wash from coated catheters ([4]; bacteria added to PBS wash): only minimal reduction in bacterial counts
- log reduction in bacterial counts due to leaching ([4]; polystyrene, 0.1 mg/ml coating, PBS wash): 0.33 log
- log reduction of SA5 titers by wash compared to control ([4]; polystyrene, 1 mg/ml coating, PBS wash): 1.3 log
- log reduction of SA5 titers by wash compared to control ([4]; polystyrene, 10 mg/ml coating, PBS wash): 1.4 log
- clearing of bacteria by coated catheters after overnight wash with PBS ([4]; vs 1500 CFU's from untreated catheters): complete clearing of bacteria
